Patent US20190218207A1, “3-(Pyridin-3-yl)-Acrylamide and N-(Pyridin-3-yl)-Acrylamide Derivatives and Their Use as PAK or NAMPT Modulators” (Karyopharm Therapeutics Inc., priority 2015, published 2019)

What was measured:
[1] = system: Z138 cells; assay: MTT cell proliferation assay, Z138 cells; assay type: cell-based, human; details: Homo sapiens, Z-138, incubation approximately 64-72 hours
Procedure: (§1) The MTT cell proliferation assay was used to study the cytotoxic properties of the compounds. The assay was performed according to the method described by Roche Molecular Biochemicals, with minor modifications. The assay is based on the cleavage of the tetrazolium salt, MTT, in the presence of an electron-coupling reagent. The water-insoluble formazan salt produced must be solubilized in an additional step. Cells grown in a 96-well tissue culture plate were incubated with the MTT solution for approximately 4 hours. After this incubation period, a water-insoluble formazan dye formed. After solubilization, the formazan dye was quantitated using a scanning multi-well spectrophotometer (ELISA reader). […] The cells were seeded at 5,000-10,000 cells in each well of 96-well plate in 100 μL of fresh culture medium and were allowed to attach overnight. The stock solutions of the compounds were diluted in […] cell culture medium to obtain eight concentrations of each test compound, ranging from 1 nM to 30 μM. […] All optical densities were measured at 490 nm using a Vmax Kinetic Microplate Reader (Molecular Devices). In most cases, the assay was performed in duplicate and the results were presented as a mean percent inhibition to the negative control±SE. The following formula was used to calculate the percent of inhibition: Inhibition (%)=(1-(ODo/OD))×100.
(§2) The compounds were tested against MS751, Z138 and 3T3 cells. The MS751 cell line is derived from a metastasis to lymph node of human cervix from a patient diagnosed with squameous cell carcinoma of the cervix. The Z138 cell line is a mature B-cell acute lymphoblastic leukemia cell line derived from a patient with chronic lumphocytic leukemia. 3T3 cells are standard fibroblast cells; they were originally isolated from Swiss mouse embryo tissue.

[2] = system: 3T3 cells; assay: MTT cell proliferation assay, 3T3 cells; assay type: cell-based, mouse; details: Mus musculus, NIH3T3; 3T3 fibroblast cells; incubation approximately 64-72 hours
Procedure: as §1, §2

[3] = system: MS751 cells; assay: MTT cell proliferation assay, MS751 cells; assay type: cell-based, human; details: Homo sapiens, incubation approximately 64-72 hours, read-out: MTT Assay IC50, MS 751
Procedure: as §1, §2

Row | SMILES | IC50 [1] [nM] | IC50 [2] [nM] | IC50 [3] [nM]
1 | Nc1ccc(/C=C/C(=O)NCc2nnc(-c3ccc(-c4ccc(C(=O)N5CC(F)(F)C5)cc4)cc3C(F)(F)F)o2)cn1 [Compound A018, (E)-3-(6-aminopyridin-3-yl)-N-((5-(4′-(3,3-difluoroazetidine-1-carbonyl)-3-(trifluoromethyl)-[1,1′-biphenyl]-4-yl)-1,3,4-oxadiazol-2-yl)methyl)acrylamide] | < 1000 | > 10000 | < 1000
2 | Nc1ccc(/C=C/C(=O)NCc2cnc(-c3ccc(-c4ccc(C(=O)N5CC(F)(F)C5)cc4)cc3C(F)(F)F)o2)cn1 [Compound A019, (E)-3-(6-aminopyridin-3-yl)-N-((2-(4′-(3,3-difluoroazetidine-1-carbonyl)-3-(trifluoromethyl)-[1,1′-biphenyl]-4-yl)oxazol-5-yl)methyl)acrylamide] | < 1000 | 1000 to 5000 | < 1000
3 | Nc1ccc(/C=C/C(=O)NCc2cnc(-c3ccc(-c4ccc(C(=O)N5CC(F)C5)cc4F)cc3C(F)(F)F)o2)cn1 [Compound A020, (E)-3-(6-aminopyridin-3-yl)-N-((2-(2′-fluoro-4′-(3-fluoroazetidine-1-carbonyl)-3-(trifluoromethyl)-[1,1′-biphenyl]-4-yl)oxazol-5-yl)methyl)acrylamide] | < 1000 | 1000 to 5000 | < 1000
4 | Nc1ccc(/C=C/C(=O)NCc2cnc(-c3ccc(-c4ccc(C(=O)N5CC(F)C5)cc4)cc3C(F)(F)F)o2)cn1 [Compound A021, (E)-3-(6-aminopyridin-3-yl)-N-((2-(4′-(3-fluoroazetidine-1-carbonyl)-3-(trifluoromethyl)-[1,1′-biphenyl]-4-yl)oxazol-5-yl)methyl)acrylamide] | < 1000 | 1000 to 5000 | < 1000
5 | Nc1ccc(/C=C/C(=O)NCc2cnc(-c3ccc(-c4ccc(C(=O)N5CC(F)(F)C5)cc4F)cc3C(F)(F)F)o2)cn1 [Compound A022, (E)-3-(6-aminopyridin-3-yl)-N-((2-(4′-(3,3-difluoroazetidine-1-carbonyl)-2′-fluoro-3-(trifluoromethyl)-[1,1′-biphenyl]-4-yl)oxazol-5-yl)methyl)acrylamide] | < 1000 | < 1000 | < 1000
6 | Cc1c(CNC(=O)/C=C/c2ccc(N)nc2)sc(-c2ccc(-c3ccc(C(=O)N4CCC(F)(F)CC4)cc3)cc2-c2ccc(F)cc2)c1C [Compound A023, (E)-3-(6-aminopyridin-3-yl)-N-((5-(4-(4,4-difluoropiperidine-1-carbonyl)-4″-fluoro-[1,1′:3′,1″-terphenyl]-4′-yl)-3,4-dimethylthiophen-2-yl)methyl)acrylamide] | < 1000 | > 10000 | 1000 to 5000
7 | Nc1ccc(/C=C/C(=O)NCc2ncc(-c3ccc(-c4ccc(C(=O)N5CC(F)(F)C5)cc4)cc3C(F)(F)F)o2)cn1 [Compound A024, (E)-3-(6-aminopyridin-3-yl)-N-((5-(4′-(3,3-difluoroazetidine-1-carbonyl)-3-(trifluoromethyl)-[1,1′-biphenyl]-4-yl)oxazol-2-yl)methyl)acrylamide] | < 1000 | 1000 to 5000 | < 1000
8 | Nc1ccc(/C=C/C(=O)NCc2ccc(-c3c(C(F)(F)F)cc(-c4ccc(C(=O)N5CC(F)(F)C5)cn4)cc3C(F)(F)F)o2)cn1 [Compound A025, (E)-3-(6-aminopyridin-3-yl)-N-((5-(4-(5-(3,3-difluoroazetidine-1-carbonyl)pyridin-2-yl)-2,6-bis(trifluoromethyl)phenyl)furan-2-yl)methyl)acrylamide] | < 1000 | < 1000 | < 1000
9 | Nc1ccc(/C=C/C(=O)NCc2ccc(-c3cc4cc(C(=O)N5CCC(F)(F)CC5)cnc4cc3C(F)(F)F)o2)cn1 [Compound A026, (E)-3-(6-aminopyridin-3-yl)-N-((5-(3-(4,4-difluoropiperidine-1-carbonyl)-7-(trifluoromethyl)quinolin-6-yl)furan-2-yl)methyl)acrylamide] | < 1000 | 1000 to 5000 | < 1000
